Data from ChEMBL document CHEMBL1154462, “Synthesis and in vitro anti-bacterial evaluation of tetracyclic-ortho-fused 4H-naphtho[1',2'-5,6]pyrano[3,4-d](1,2,3)selenadiazole and its derivatives” (2008).
In brackets after ≈: the same amount, converted by molar mass.

Assays:
Format in all cases: functional
Pseudomonas aeruginosa = test: Antibacterial activity against Pseudomonas aeruginosa isolate by agar cup method
Escherichia coli = test: Antibacterial activity against Escherichia coli isolate by agar cup method
Staphylococcus aureus = test: Antibacterial activity against Staphylococcus aureus isolate by agar cup method
Bacillus subtilis = test: Antibacterial activity against Bacillus subtilis isolate by agar cup method

Row | Structure (SMILES) | MIC (Pseudomonas aeruginosa) | MIC (Escherichia coli) | MIC (Staphylococcus aureus) | MIC (Bacillus subtilis)
1 | CC1Oc2ccc3ccccc3c2-c2nn[se]c21 (stereo not given) | 1000 µg/mL (≈ 3320 µM) | 500 µg/mL (≈ 1660 µM) | 250 µg/mL (≈ 830 µM) | 250 µg/mL (≈ 830 µM)
2 | Brc1ccc2c3c(ccc2c1)OCc1[se]nnc1-3 | 500 µg/mL (≈ 1370 µM) | 50 µg/mL (≈ 137 µM) | 50 µg/mL (≈ 137 µM) | 100 µg/mL (≈ 273 µM)
3 | c1ccc2c3c(ccc2c1)OCc1[se]nnc1-3 | 1000 µg/mL (≈ 3480 µM) | 250 µg/mL (≈ 871 µM) | 250 µg/mL (≈ 871 µM) | 250 µg/mL (≈ 871 µM)
4 | CC1Oc2ccc3cc(Br)ccc3c2-c2nn[se]c21 (stereo not given) | 1000 µg/mL (≈ 2630 µM) | 500 µg/mL (≈ 1320 µM) | 500 µg/mL (≈ 1320 µM) | 50 µg/mL (≈ 132 µM)
5 | Brc1cccc2c3c(ccc12)OCc1[se]nnc1-3 | 1000 µg/mL (≈ 2730 µM) | 250 µg/mL (≈ 683 µM) | 50 µg/mL (≈ 137 µM) | 100 µg/mL (≈ 273 µM)
